Data on 24 compounds can be found in ChEMBL document CHEMBL4351028, “Benzoyl indoles with metabolic stability as reversal agents for ABCG2-mediated multidrug resistance” (Eur J Med Chem, 2019).

pIC50: −log10 of the molar value. Active and inactive are the calls of the source. The calls are words filed in the database; no cut-off is given here. A value given as a limit tells only on which side of the number the result lay.

Data set [1] concerns NCI-H460. Kind of data set: Cytotoxicity against human NCI-H460 cells assessed as concentration that causes inhibition of cell viability by <=20% incubated for 24 hrs by MTT assay. It is filed as cell-based. Particulars: nci-h460, 24 h.
Data set [2] in a line: Cytotoxicity against human NCI-H460/MX20 cells assessed as concentration that causes inhibition of cell viability by <=20% incubated for 24 hrs by MTT assay. It is filed as cell-based. (Tetrazolium assays rely on reduction of a dye to a coloured formazan, in cell work by metabolically active cells.)
In data set [3] the test system is NCI-H460. Kind of data set: Cytotoxicity against human NCI-H460 cells assessed as inhibition of cell viability incubated for 2 hrs by MTT assay. In kind it is cell-based. The settings on record: NCI-H460, 2 h.
The nature of data set [4]: Cytotoxicity against human NCI-H460/MX20 cells assessed as inhibition of cell viability incubated for 2 hrs by MTT assay. In kind it is cell-based. Particulars: NCI-H460/MX20, 2 h.
Data set [5] concerns the target T1, Broad substrate specificity ATP-binding cassette transporter ABCG2 (Homo sapiens, UniProt Q9UNQ0).
T1 sequence (Q9UNQ0 whole entry): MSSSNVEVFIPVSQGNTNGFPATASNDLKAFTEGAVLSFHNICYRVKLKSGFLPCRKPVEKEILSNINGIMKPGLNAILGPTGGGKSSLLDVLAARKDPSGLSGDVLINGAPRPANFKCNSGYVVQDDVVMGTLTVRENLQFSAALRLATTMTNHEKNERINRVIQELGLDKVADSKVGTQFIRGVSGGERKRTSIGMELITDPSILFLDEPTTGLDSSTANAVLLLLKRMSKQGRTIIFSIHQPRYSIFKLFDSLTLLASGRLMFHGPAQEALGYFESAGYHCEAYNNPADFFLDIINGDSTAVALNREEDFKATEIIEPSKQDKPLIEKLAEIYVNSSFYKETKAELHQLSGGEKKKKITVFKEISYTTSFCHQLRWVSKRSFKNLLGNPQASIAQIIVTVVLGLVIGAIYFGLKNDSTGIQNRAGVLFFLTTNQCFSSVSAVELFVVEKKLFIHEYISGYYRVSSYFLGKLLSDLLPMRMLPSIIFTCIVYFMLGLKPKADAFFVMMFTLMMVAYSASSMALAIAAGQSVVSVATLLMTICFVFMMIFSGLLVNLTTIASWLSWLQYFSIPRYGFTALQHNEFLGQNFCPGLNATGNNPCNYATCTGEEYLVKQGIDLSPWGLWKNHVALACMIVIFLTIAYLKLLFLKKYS
As to the kind of experiment: Reversal of ABCG2-mediated multidrug resistance in human NCI-H460/MX20 cells assessed as potentiation of mitoxantrone-induced cytotoxicity by measuring inhibition of cell proliferation at 1 uM pretreated for 2 hrs followed by mitoxantrone addition and measured after 44 hrs by MTT assay (reference value: 24 +/- 3%). It is filed as cell-based.

Data set [6] has as its target T1, Broad substrate specificity ATP-binding cassette transporter ABCG2. Kind of data set: Reversal of ABCG2-mediated multidrug resistance in human NCI-H460/MX20 cells assessed as potentiation of mitoxantrone-induced cytotoxicity by measuring inhibition of cell proliferation at 25 uM pretreated for 2 hrs followed by mitoxantrone addition and measured after 44 hrs by MTT assay (reference value: 24 +/- 3%). In kind it is cell-based. The settings on record: for inhibition (INH): 25 µM.

For data set [7] the target is unchanged. Kind of data set: Reversal of ABCG2-mediated multidrug resistance in human NCI-H460/MX20 cells assessed as potentiation of mitoxantrone-induced cytotoxicity by measuring inhibition of cell proliferation at 10 uM pretreated for 2 hrs followed by mitoxantrone addition and measured after 44 hrs by MTT assay (reference value: 24 +/- 3%). In kind it is cell-based. Particulars: for inhibition (INH): 10 µM.

Data set [8] has the same target. Kind of data set: Reversal of ABCG2-mediated multidrug resistance in human NCI-H460/MX20 cells assessed as potentiation of mitoxantrone-induced cytotoxicity by measuring inhibition of cell proliferation pretreated for 2 hrs followed by mitoxantrone addition and measured after 44 hrs by MTT assay. It is filed as cell-based.
Data set [9] has as its system HEK293. As to the kind of experiment: Reversal of ABCG2 482-G2 mutant (unknown origin) expressed in HEK293 cells-mediated multidrug resistance assessed as potentiation of mitoxantrone-induced cytotoxicity at 5 uM pretreated for 2 hrs followed by mitoxantrone addition and measured after 44 hrs by MTT assay. It is filed as cell-based. The settings on record: Homo sapiens.

Data set [10] can be described thus: Metabolic stability in human liver microsomes assessed as compound remaining at 100 uM incubated for 1 hr by HPLC analysis. In kind it is ADME, Microsome. Particulars: read-out: Stability. In general terms: Microsomes from liver hold many membrane-bound enzymes, among them those of drug oxidation.
Data set [11] relates to HEK293. Kind of data set: Reversal of ABCG2 482-T7 mutant (unknown origin) expressed in HEK293 cells-mediated multidrug resistance assessed as potentiation of mitoxantrone-induced cytotoxicity at 5 uM pretreated for 2 hrs followed by mitoxantrone addition and measured after 44 hrs by MTT assay. It is filed as cell-based. Particulars: Homo sapiens.

Turning to `O=C(c1cc(O)c(O)c(O)c1)c1c[nH]c2ccc(O)cc12`, the Activity (with NCI-H460 [1]; in data set [2]) was 25 µM each time. Besides, the pIC50 (in the data set on NCI-H460 [3] (read-out: IC50); in data set [4]) was less than 4.00 throughout.
For the compound `O=C(c1ccc(O)cc1)c1ccc2[nH]cc(C(=O)c3ccc(O)cc3)c2c1O`, the Activity (in the data set on NCI-H460 [1]; in data set [2]) was 25 µM in each case. Moreover, the pIC50 (in the data set with NCI-H460 [3] (read-out: IC50); in [4]) was less than 4.00 in each case.
Regarding `COc1ccc2[nH]cc(C(=O)c3cc(OC)c(OC)c(OC)c3)c2c1`, the Activity (in the data set on NCI-H460 [1]; in data set [2]) was 1 µM in each case. The “inhibition (INH)” value in data set [5] was “Active”. Moreover, the pIC50 (in general, the IC50 on a negative log10 scale, so that one unit is a factor of ten) in the data set with NCI-H460 [3] (read-out: IC50) is 5.31; in data set [4] it was 5.24.
`COc1ccc(C(=O)c2c[nH]c3ccc(OC)cc23)c(OC)c1`: the Activity (with NCI-H460 [1]; in data set [2]) was 25 µM each time. Besides, the pIC50 (in the data set with NCI-H460 [3] (read-out: IC50); in data set [4]) was less than 4.00 throughout. In addition, the “inhibition (INH)” value in [6] is on record as “Active”.
With `COc1ccc(C(=O)c2c[nH]c3c(OC)cccc23)c(OC)c1`, the Activity (in the data set with NCI-H460 [1]; in [2]) was 10 µM each time. Also, the “inhibition (INH)” value in [7] is “Active”. The pIC50 (in the data set with NCI-H460 [3] (read-out: IC50); in data set [4]) was less than 4.00 each time.
`O=C(c1ccc(O)cc1O)c1c[nH]c2cccc(O)c12`: the Activity (in the data set on NCI-H460 [1]; in data set [2]) was 25 µM in each case. The “inhibition (INH)” value in data set [8] was “Dose-dependent effect”. The pIC50 (in the data set with NCI-H460 [3] (read-out: IC50); in data set [4]) was less than 4.00 each time. In data set [6], the inhibition (as a rule, the share of the control response that was lost under treatment) at 25 µM is greater than 87%.
In the case of `O=C(c1c(O)cccc1O)c1c[nH]c2ccc(O)cc12`, the Activity (in the data set with NCI-H460 [1]; in [2]) was 10 µM throughout. Further, the pIC50 (in the data set on NCI-H460 [3] (read-out: IC50); in data set [4]) was less than 4.00 each time.
As to `O=C(c1cccc(O)c1)c1c[nH]c2ccc(O)cc12`, the Activity (with NCI-H460 [1]; in data set [2]) was 25 µM throughout. Besides, the pIC50 (in the data set on NCI-H460 [3] (read-out: IC50); in [4]) was less than 4.00 throughout.
On to `O=C(c1ccc(O)cc1O)c1c[nH]c2c(O)cccc12`, for which the Activity (with NCI-H460 [1]; in data set [2]) was 10 µM each time. The pIC50 (in the data set on NCI-H460 [3] (read-out: IC50); in data set [4]) was less than 4.00 in each case.
As for `O=C(c1ccc(O)cc1)c1c[nH]c2ccc(O)cc12`, the Activity (in the data set with NCI-H460 [1]; in data set [2]) was 25 µM throughout. In addition, the pIC50 (in the data set on NCI-H460 [3] (read-out: IC50); in data set [4]) was less than 4.00 each time. Besides, the “inhibition (INH)” value in [6] is recorded as “Active”.
Consider `COc1cccc(C(=O)c2c[nH]c3ccc(OC)cc23)c1`, for which the Activity (in the data set on NCI-H460 [1]; in data set [2]) was 10 µM each time. Besides, in [7], the inhibition at 10 µM was greater than 87%. For the same compound, the “inhibition (INH)” value in data set [8] is listed as “Dose-dependent effect”. Also, the pIC50 in the data set on NCI-H460 [3] (read-out: IC50) is less than 4.00; in [4], 4.27.
On to `COc1ccc(C(=O)c2c(OC)ccc3cc(OC)ccc23)c(OC)c1`, for which the Activity (with NCI-H460 [1]; in data set [2]) was 10 µM each time. Further, the pIC50 is 4.06 in the data set on NCI-H460 [3] (read-out: IC50) and 4.08 in data set [4]. The “inhibition (INH)” value in data set [6] is given as “Not Active”.
Regarding `COc1ccc(C(=O)c2c[nH]c3cccc(OC)c23)c(OC)c1`, the Activity (with NCI-H460 [1]; in data set [2]) was 25 µM throughout. The pIC50 (in the data set with NCI-H460 [3] (read-out: IC50); in [4]) was less than 4.00 each time. The “inhibition (INH)” value in [6] is on record as “Active”.
Take `O=C(c1ccccc1O)c1c[nH]c2ccc(O)cc12`: the Activity (in the data set on NCI-H460 [1]; in [2]) was 25 µM throughout. For the same compound, the “inhibition (INH)” value in data set [8] is recorded as “Dose-dependent effect”. Further, the pIC50 (in the data set with NCI-H460 [3] (read-out: IC50); in data set [4]) was less than 4.00 each time. Also, the inhibition at 25 µM in data set [6] is greater than 87%.
For the compound `COc1ccc2[nH]cc(C(=O)c3ccccc3OC)c2c1`, the Activity (in the data set on NCI-H460 [1]; in data set [2]) was 1 µM in each case. Besides, the “inhibition (INH)” value in data set [5] was “Active”. Besides, the pIC50 is 4.34 in the data set with NCI-H460 [3] (read-out: IC50) and 4.21 in [4].
In the case of `COc1ccc(C(=O)c2ccc3[nH]cc(C(=O)c4ccc(OC)cc4OC)c3c2OC)c(OC)c1`, the Activity (with NCI-H460 [1]; in data set [2]) was 25 µM in each case. Besides, the “inhibition (INH)” value in [8] is listed as “Dose-dependent effect”. For the same compound, the pIC50 was less than 4.00 in the data set with NCI-H460 [3] (read-out: IC50) and 4.16 in data set [4]. Moreover, the inhibition at 25 µM in data set [6] is greater than 87%.
`COc1ccc2[nH]cc(C(=O)c3c(OC)cccc3OC)c2c1`: the Activity (in the data set on NCI-H460 [1]; in data set [2]) was 1 µM each time. Further, the “inhibition (INH)” value in data set [5] was “Active”. For the same compound, the pIC50 (in the data set on NCI-H460 [3] (read-out: IC50); in data set [4]) was less than 4.00 in each case.
Take `COc1ccc2c3c([nH]c2c1)[C@H](CC(C)C)N1C(=O)[C@H](CCC(=O)OC(C)(C)C)NC(=O)[C@@H]1C3`: the outcome with HEK293 [9] and with HEK293 [11] was Active. In addition, the remaining at 1 h, 100 µM in data set [10] was 23%.
For the compound `O=C1c2c(O)ccc(O)c2C(=O)c2c(NCCNCCO)ccc(NCCNCCO)c21` [MITOXANTRONE], the values for the pIC50 (in the data set on NCI-H460 [3]; in data set [4]) were 6.44 and 4.39, respectively.
As for `COc1ccc(C(=O)c2c[nH]c3cccc(OC)c23)cc1`, the Activity (with NCI-H460 [1]; in data set [2]) was 10 µM in each case. Also, the “inhibition (INH)” value in data set [7] is “Active”. In addition, the pIC50 (with NCI-H460 [3] (read-out: IC50); in data set [4]) was less than 4.00 each time.
In the case of `COc1cc(C(=O)c2c[nH]c3cccc(OC)c23)cc(OC)c1OC`, the Activity (with NCI-H460 [1]; in [2]) was 1 µM in each case. Also, the “inhibition (INH)” value in data set [5] is “Active”. The pIC50 (in the data set with NCI-H460 [3] (read-out: IC50); in [4]) was less than 4.00 each time.
Turning to `O=C(c1ccc(O)cc1O)c1c[nH]c2ccc(O)cc12`, the Activity (in the data set on NCI-H460 [1]; in data set [2]) was 25 µM throughout. The pIC50 (in the data set with NCI-H460 [3] (read-out: IC50); in data set [4]) was less than 4.00 throughout. Besides, in [6], the “inhibition (INH)” value is listed as “Active”.
Take `O=C(c1ccc(O)cc1)c1c[nH]c2cccc(O)c12`: the Activity (in the data set on NCI-H460 [1]; in [2]) was 25 µM throughout. Moreover, the “inhibition (INH)” value in data set [8] is listed as “Dose-dependent effect”. For the same compound, the pIC50 (with NCI-H460 [3] (read-out: IC50); in data set [4]) was less than 4.00 throughout. For the same compound, the inhibition at 25 µM in [6] is greater than 87%.
For the compound `O=C(c1cc(O)c(O)c(O)c1)c1c[nH]c2cccc(O)c12`, the Activity (in the data set on NCI-H460 [1]; in data set [2]) was 25 µM throughout. Moreover, the pIC50 (in the data set on NCI-H460 [3] (read-out: IC50); in data set [4]) was less than 4.00 in each case.
